We go through 28 compounds from patent US20250179059A1 (The Regents of the University of California, priority 2021, published 2025).

The IC50 is the concentration at which inhibition is half-maximal. A word on the GI50: it is the concentration giving 50% growth inhibition. Read a low GI50 as greater sensitivity of the cells.

In experiment [1] the target is T1, human BRD4 bromodomain II (Homo sapiens, UniProt O60885).
T1 construct: human BRD4 bromodomain II [based on Genbank NM_058243, residues 349-460]; host or cells: E. coli
Description: Bromodomain binding assay (AlphaScreen), BRD4 BDII. To be noted: AlphaScreen assay, Table C2; read-out: BRD4 BDII IC50. In short, it runs like this:
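Tagged BRD4 BDI or BDII constructs, expressed in E. coli, competed against a K5/K8/K12/K16-acetylated biotin-H4 peptide. Proximity signal between bead pairs after room-temperature incubations gave concentration-response curves, from which IC50 was derived.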

Experiment [2] relates to human SKM-1 acute myeloid leukemia cells. Description: SKM-1 antiproliferation cell-based assay (ATPlite). As to conditions: Homo sapiens, SKM-1, 96 h, SKM-1 antiproliferation assay, 4 days, Table C2. In short, it runs like this: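 Log-phase cells in RPMI 1640/15% FBS were seeded at 34722 cells/mL and exposed for 4 days to nine-concentration DMSO serial dilutions in triplicate. Viability was read as ATP luminescence (ATPlite 1step), and IC50 values came from variable-slope non-linear regression.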
A general note: In ATP-based viability assays light output follows the ATP content of the culture.

The structures appear in SMILES notation.

Consider `C[C@@H]1CN(c2cc(-c3cccc(-c4ccc(N5CCCC5=O)c(F)c4)c3O)ccn2)CCN1` [Example 252, (R)-1-(3-fluoro-2′-hydroxy-3′-(2-(3-methylpiperazin-1-yl)pyridin-4-yl)-[1,1′-biphenyl]-4-yl)pyrrolidin-2-one], for which the IC50 in experiment [1] is 1 to 10 nM. The same compound showed a GI50 in experiment [2] of 300 to 3000 nM.

For `C[C@@H]1CN(c2cc(-c3cccc(-c4ccc(N5CCCC5=O)c(Cl)c4)c3O)ccn2)CCN1` [Example 253, (R)-1-(3-chloro-2′-hydroxy-3′-(2-(3-methylpiperazin-1-yl)pyridin-4-yl)-[1,1′-biphenyl]-4-yl)pyrrolidin-2-one], the 50% inhibitory concentration (IC50) in experiment [1] lay in the range of 1 to 10 nM. For the same compound, the 50% growth inhibitory concentration (GI50) in experiment [2] was 300 to 3000 nM.

`CC(=O)Nc1ccc(-c2cccc(-c3cccc(N4CCNC(=O)C4)c3)c2O)cc1F` [Example 254, N-(3-fluoro-2′-hydroxy-3″-(3-oxopiperazin-1-yl)-[1,1′:3′,1″-terphenyl]-4-yl)acetamide]: the IC50 in experiment [1] was in the range of 10 to 100 nM. The GI50 in experiment [2] was at least 3000 nM.

For the compound `CC(=O)Nc1ccc(-c2cccc(-c3ccnc(N4CCN[C@H](C)C4)c3)c2O)cc1F` [Example 255, (R)-N-(3-fluoro-2′-hydroxy-3'-(2-(3-methylpiperazin-1-yl)pyridin-4-yl)-[1,1′-biphenyl]-4-yl)acetamide], the IC50 in experiment [1] lay in the range of 1 to 10 nM. This compound had a GI50 in experiment [2] of 30 to 300 nM.

In the case of `CC(=O)Nc1ccc(-c2cccc(-c3ccnc(N4CCN[C@H](C)C4)c3)c2O)cc1Cl` [Example 256, (R)-N-(3-chloro-2′-hydroxy-3′-(2-(3-methylpiperazin-1-yl)pyridin-4-yl)-[1,1′-biphenyl]-4-yl)acetamide], the IC50 in experiment [1] lay in the range of 1 to 10 nM. In experiment [2], this compound showed a GI50 of 300 to 3000 nM.

As for `O=C1CCC(=O)N1c1ccc(-c2cccc(-c3cncc(N4CCNCC4)c3)c2O)cc1F` [Example 257, 1-(3-fluoro-2′-hydroxy-3′-(5-(piperazin-1-yl)pyridin-3-yl)-[1,1′-biphenyl]-4-yl)pyrrolidine-2,5-dione], the IC50 in experiment [1] was over 100 nM. The GI50 in experiment [2] was at least 3000 nM.

For `CC(=O)Nc1ccc(-c2cccc(-c3cncc(N4CCN[C@H](C)C4)c3)c2O)cc1F` [Example 258], the IC50 in experiment [1] lay within 1 to 10 nM. Moreover, the GI50 in experiment [2] was in the range of 30 to 300 nM.

As to `CC(=O)Nc1ccc(-c2cccc(-c3cncc(N4CCN[C@H](C)C4)c3)c2O)cc1Cl` [Example 259, (R)-N-(3-chloro-2′-hydroxy-3′-(5-(3-methylpiperazin-1-yl)pyridin-3-yl)-[1,1′-biphenyl]-4-yl)acetamide], the IC50 in experiment [1] lay within 1 to 10 nM. In experiment [2], this compound came in with a GI50 of 30 to 300 nM.

For the compound `COC(=O)c1cc(-c2cccc(-c3ccc(NC(C)=O)c(F)c3)c2O)cc(N2CCNCC2)n1` [Example 260, Methyl 4-(4′-acetamido-3′-fluoro-2-hydroxy-[1,1′-biphenyl]-3-yl)-6-(piperazin-1-yl)picolinate], the IC50 in experiment [1] was over 100 nM. Moreover, the GI50 in experiment [2] was at least 3000 nM.

`CC(=O)Nc1ccc(-c2cccc(-c3ccnc(N4CC[C@@H](N)C4)c3)c2O)cc1F` [Example 261, (R)-N-(3′-(2-(3-aminopyrrolidin-1-yl)pyridin-4-yl)-3-fluoro-2′-hydroxy-[1,1′-biphenyl]-4-yl)acetamide]: the IC50 in experiment [1] lay within 1 to 10 nM. This compound also displayed a GI50 in experiment [2] of 30 to 300 nM.

In the case of `O=C1CCCN1c1ccc(-c2cccc(-c3cncc(N4CCNCC4)c3)c2O)cc1Cl` [Example 262, 1-(3-chloro-2′-hydroxy-3′-(5-(piperazin-l-yl)pyridin-3-yl)-[1,1′-biphenyl]-4-yl)pyrrolidin-2-one], the IC50 in experiment [1] was 1 to 10 nM. In experiment [2], this compound returned a GI50 of 30 to 300 nM.

`O=C1CCCCN1c1ccc(-c2cccc(-c3ccnc(N4CCNCC4)c3)c2O)cc1F` [Example 263, 1-(3-fluoro-2′-hydroxy-3′-(2-(piperazin-1-yl)pyridin-4-yl)-[1,1′-biphenyl]-4-yl)piperidin-2-one]: the IC50 in experiment [1] was in the range of 10 to 100 nM. The compound also had a GI50 in experiment [2] of 300 to 3000 nM.

On to `C[C@@H]1CN(c2cncc(-c3cccc(-c4ccc(N5CCCC5=O)c(F)c4)c3O)c2)CCN1` [Example 264, (R)-1-(3-fluoro-2′-hydroxy-3′-(5-(3-methylpiperazin-1-yl)pyridin-3-yl)-[1,1′-biphenyl]-4-yl)pyrrolidin-2-one], for which the IC50 in experiment [1] was in the range of 1 to 10 nM. This compound showed a GI50 in experiment [2] of 30 to 300 nM.

Turning to `C[C@@H]1CN(c2cncc(-c3cccc(-c4ccc(N5CCCC5=O)c(Cl)c4)c3O)c2)CCN1` [Example 265, (R)-1-(3-chloro-2′-hydroxy-3′-(5-(3-methylpiperazin-1-yl)pyridin-3-yl)-[1,1'-biphenyl]-4-yl)pyrrolidin-2-one], the IC50 in experiment [1] fell in the range of 1 to 10 nM. Further, the GI50 in experiment [2] fell in the range of 30 to 300 nM.

For `CC1CN(c2cc(-c3cccc(-c4ccc(N5CCCC5=O)c(F)c4)c3O)ccn2)CC(C)N1` (centres unmarked) [Example 266, 1-(3′-(2-(3,5-dimethylpiperazin-1-yl)pyridin-4-yl)-3-fluoro-2′-hydroxy-[1,1′-biphenyl]-4-yl)pyrrolidin-2-one], the IC50 in experiment [1] lay in the range of 1 to 10 nM. The compound further came in with a GI50 in experiment [2] of 300 to 3000 nM.

Consider `CC1CN(c2cc(-c3cccc(-c4ccc(N5CCCC5=O)c(Cl)c4)c3O)ccn2)CC(C)N1` (centres unmarked) [Example 267, 1-(3-chloro-3′-(2-(3,5-dimethylpiperazin-1-yl)pyridin-4-yl)-2′-hydroxy-[1,1′-biphenyl]-4-yl)pyrrolidin-2-one], for which, in experiment [1], the IC50 was in the range of 1 to 10 nM. The compound further returned a GI50 in experiment [2] of 30 to 300 nM.

`CC(=O)Nc1ccc(-c2cc(Cl)cc(-c3ccnc(N4CCNCC4)c3)c2O)cc1F` [Example 268, N-(5′-chloro-3-fluoro-2′-hydroxy-3′-(2-(piperazin-1-yl)pyridin-4-yl)-[1,1′-biphenyl]-4-yl)acetamide]: in experiment [1], the IC50 fell in the range of 1 to 10 nM. Moreover, in experiment [2], the concentration for 50% growth inhibition (GI50) is 30 to 300 nM.

Turning to `O=C1CCCN1c1ccc(-c2cc(Cl)cc(-c3ccnc(N4CCNCC4)c3)c2O)cc1F` [Example 269, 1-(5′-chloro-3-fluoro-2′-hydroxy-3′-(2-(piperazin-1-yl)pyridin-4-yl)-[1,1′-biphenyl]-4-yl)pyrrolidin-2-one], the IC50 in experiment [1] fell in the range of 1 to 10 nM. In experiment [2], this compound had a GI50 of 300 to 3000 nM.

In the case of `CC(=O)Nc1ccc(-c2cccc(-c3ccnc(N4CC5(CNC5)C4)c3)c2O)cc1F` [Example 270, N-(3′-(2-(2,6-diazaspiro[3.3]heptan-2-yl)pyridin-4-yl)-3-fluoro-2′-hydroxy-[1,1′-biphenyl]-4-yl)acetamide], the IC50 in experiment [1] was 1 to 10 nM. The compound also displayed a GI50 in experiment [2] of 300 to 3000 nM.

Take `O=C1CCCN1c1ccc(-c2cccc(-c3ccnc(N4CC5(CNC5)C4)c3)c2O)cc1Cl` [Example 271, 1-(3′-(2-(2,6-diazaspiro[3.3]heptan-2-yl)pyridin-4-yl)-3-chloro-2′-hydroxy-[1,1′-biphenyl]-4-yl)pyrrolidin-2-one]: in experiment [1], the IC50 lay within 10 to 100 nM. Moreover, the GI50 in experiment [2] lay in the range of 300 to 3000 nM.

Consider `CC(=O)Nc1ccc(-c2cccc(-c3ccnc(N4CCC(O)CC4)c3)c2O)cc1F` [Example 272, N-(3-fluoro-2′-hydroxy-3′-(2-(4-hydroxypiperidin-1-yl)pyridin-4-yl)-[1,1′-biphenyl]-4-yl)acetamide], for which the IC50 in experiment [1] fell in the range of 10 to 100 nM. In experiment [2], the GI50 lay in the range of 300 to 3000 nM.

Take `CC(=O)Nc1ccc(-c2cccc(-c3cc(C(N)=O)nc(N4CCNCC4)c3)c2O)cc1F` [Example 273, 4-(4′-acetamido-3′-fluoro-2-hydroxy-[1,1′-biphenyl]-3-yl)-6-(piperazin-1-yl)picolinamide]: in experiment [1], the IC50 lay in the range of 10 to 100 nM. In addition, in experiment [2], the GI50 is 300 to 3000 nM.

As to `O=C1CCCN1c1ccc(-c2cc(Cl)cc(-c3ccnc(N4CCNCC4)c3)c2O)cc1Cl` [Example 274, 1-(3,5′-dichloro-2′-hydroxy-3′-(2-(piperazin-1-yl)pyridin-4-yl)-[1,1′-biphenyl]-4-yl)pyrrolidin-2-one], the IC50 in experiment [1] is 1 to 10 nM. This compound also registered a GI50 in experiment [2] of 30 to 300 nM.

For `CC(=O)Nc1ccc(-c2cc(C)cc(-c3ccnc(N4CCNCC4)c3)c2O)cc1F` [Example 275, N-(3-fluoro-2′-hydroxy-5′-methyl-3′-(2-(piperazin-1-yl)pyridin-4-yl)-[1,1′-biphenyl]-4-yl)acetamide], the IC50 in experiment [1] fell in the range of 1 to 10 nM. In experiment [2], this compound returned a GI50 of 30 to 300 nM.

In the case of `O=C1NCCCN1c1ccc(-c2cccc(-c3ccnc(N4CCNCC4)c3)c2O)cc1Cl` [Example 276, 1-(3-chloro-2′-hydroxy-3′-(2-(piperazin-l-yl)pyridin-4-yl)-[1,1′-biphenyl]-4-yl)tetrahydropyrimidin-2(1H)-one], the IC50 in experiment [1] was in the range of 10 to 100 nM. In addition, the GI50 in experiment [2] was in the range of 300 to 3000 nM.

On to `O=C1NCCCN1c1ccc(-c2cccc(-c3ccnc(N4CCNCC4)c3)c2O)cc1F` [Example 277, 1-(3-fluoro-2′-hydroxy-3′-(2-(piperazin-1-yl)pyridin-4-yl)-[1,1′-biphenyl]-4-yl)tetrahydropyrimidin-2(1H)-one], for which the IC50 in experiment [1] is over 100 nM. Besides, the GI50 in experiment [2] lay in the range of 300 to 3000 nM.

As to `O=C1NCCCN1c1ccc(-c2cc(F)cc(-c3ccnc(N4CCNCC4)c3)c2O)cc1F` [Example 278, 1-(3,5′-difluoro-2′-hydroxy-3′-(2-(piperazin-1-yl)pyridin-4-yl)-[1,1′-biphenyl]-4-yl)tetrahydropyrimidin-2(1H)-one], in experiment [1], the IC50 fell in the range of 10 to 100 nM. This compound returned a GI50 in experiment [2] of 300 to 3000 nM.

Regarding `CC(=O)Nc1ccc(-c2cccc(-c3ccnc(N4CC(C)NC(C)C4)c3)c2O)cc1F` (centres unmarked) [Example 279, N-(3′-(2-(3,5-dimethylpiperazin-1-yl)pyridin-4-yl)-3-fluoro-2′-hydroxy-[1,1′-biphenyl]-4-yl)acetamide], the IC50 in experiment [1] lay in the range of 1 to 10 nM. In experiment [2], this compound gave a GI50 of 300 to 3000 nM.
